Results published in US12338199B2, “Bis-octahydrophenanthrene carboxamides and protein conjugates thereof” (REGENERON PHARMACEUTICALS, INC., priority 2017, dated 2025).
Where a name gives a salt, the structure may show the parent alone.

What was measured:
[1] = target: T1, LXR alpha (Homo sapiens, UniProt Q13133); assay: LanthaScreen TR-FRET LXR alpha Coactivator Assay (cell-free binding); settings: TR-FRET, 12-point curve; read-out: Cell free binding LXRα IC50
T1 construct: LXR alpha or beta LBD-GST; purchased ThermoFisher PV4655
T1 sequence (Q13133 209-447 limits assumed): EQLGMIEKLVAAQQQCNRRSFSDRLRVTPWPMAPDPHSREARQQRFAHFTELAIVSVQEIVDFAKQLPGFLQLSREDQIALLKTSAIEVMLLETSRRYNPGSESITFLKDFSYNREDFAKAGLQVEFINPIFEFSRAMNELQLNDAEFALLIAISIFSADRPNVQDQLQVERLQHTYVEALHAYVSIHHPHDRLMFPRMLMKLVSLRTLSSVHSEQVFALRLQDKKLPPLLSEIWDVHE
Experimental: (§1) To evaluate the ability of novel LXR agonists to bind to the LXR alpha and beta receptor, a cell-free binding assay was performed using a LanthaScreen TR-FRET LXR alpha Coactivator Assay Kit (ThermoFisher, Cat # PV4655) and LXR beta Coactivator Assay Kit (ThermoFisher, Cat # PV4658). The assay was performed according to the manufacturer's instructions. Briefly, a 3-fold serial dilution of LXR agonists were prepared in 100% DMSO starting at 100 μM (100× of final). Serial dilutions were further diluted 50-fold in nuclear receptor buffer F with 5 mM DTT, and transferred to a 384-well assay plate. Next, Fluorescein-D22, LXR alpha or beta LBD-GST, and Tb anti-GST antibody was sequentially added to 384-well assay plate. The plate was then incubated at rt for 2.5 hours while being protected from light. […] The IC50 values were determined using a four-parameter logistic equation over a 12-point response curve (GraphPad Prism).

[2] = system: THP1/LXR-Luc cells; assay: THP1/LXR-Luc luciferase reporter bioassay; assay type: cell-based; settings: Homo sapiens, THP-1, 48 hours; for EC50: read-out: Activation of THP1/LXR-Luc cells: EC50; for Emax: relative to maximum activation of free payload 9d, read-out: Activation of THP1/LXR-Luc cells: Fold of activation
From the text: The fold activation in the cell-based assays (as described in Example 68, below) was defined based on the maximum activation of the free payload 9d.
A bioassay was developed to assess the activity of LXR agonists after internalization of an agonist or of a ncADC into cells and binding to LXR, a nuclear receptor, using a commercially available LXR reporter (referred to as LXR-Luc) that contains the firefly luciferase gene under control by minimal CMV promoter and tandem repeats of the LXR transcriptional response element. For this assay, a THP1 cell line, which is a human monocytic leukaemia line, was engineered to express full length human Her2 (expressing amino acids M1 through V1255 of accession number NP_004439.2). The subsequent stable cell line was further transduced with a Cignal LXR Luc Reporter (Qiagen, Cat # CLS-7041L). The resulting stable cell line is referred to herein as THP1/Her2/LXR-Luc. The Her2 cell surface expression on THP1/Her2/LXR-Luc cell line was confirmed by FACS (data not shown).
Additionally, a THP1 cell line was transduced with a Cignal LXR Luc Reporter (Qiagen, Cat # CLS-7041L) without the addition of Her2. The resulting stable cell line is referred to herein as THP1/LXR-Luc. All of the antibodies used in the subsequent bioassays were assessed for their ability to internalize and release a payload on the bioassay cell line used.
This example assessed the ability of the LXR agonists provided herein, reference compounds, and anti-Her2 antibody-LXR ncADC to activate LXR. The samples were tested in the THP1/LXR-Luc/Her2 bioassay. For the assay, either THP1/LXR-Luc cells or THP1/LXR-Luc/Her2 cells were seeded onto white 96 well plates at 30,000 cells/well in media containing RPMI supplemented with 10% FBS and pencillin/streptomycin (complete media). Subsequently 3-fold serial dilutions of antibody drug conjugates, unconjugated antibodies, or free payloads were added to the cells at final concentration ranging from 100 nM to 0.01 nM. After 48-hour or 72-hour incubation, luciferase activity was determined after the addition of One-Glo™ reagent (Promega, Cat # E6130) to each well of cells. Relative light units (RLUs) were measured on a Victor luminometer (PerkinElmer) and the EC5o values were determined using a four-parameter logistic equation over a 10-point dose response curve (GraphPad Prism) (FIG. 15). The fold activation is calculated based on the maximum activation of the free payload 9d.

[3] = target: T2, LXR beta (Homo sapiens, UniProt P55055); assay: LanthaScreen TR-FRET LXR beta Coactivator Assay (cell-free binding); settings: TR-FRET, 12-point curve; read-out: Cell free binding LXRβ IC50
T2 construct: LXR alpha or beta LBD-GST; purchased ThermoFisher PV4658
T2 sequence (P55055 222-460 limits assumed): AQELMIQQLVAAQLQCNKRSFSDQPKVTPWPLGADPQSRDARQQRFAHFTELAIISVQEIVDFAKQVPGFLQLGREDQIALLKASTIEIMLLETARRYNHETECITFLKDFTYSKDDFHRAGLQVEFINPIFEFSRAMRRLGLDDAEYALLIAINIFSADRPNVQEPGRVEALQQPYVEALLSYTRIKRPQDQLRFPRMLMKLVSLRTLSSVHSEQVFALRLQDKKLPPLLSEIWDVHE
Experimental: as §1

[4] = system: THP1/LXR-Luc cells; assay: LXR-luciferase reporter bioassay in PMA-differentiated THP1/LXR-Luc cells; assay type: cell-based, human; settings: for EC50: Homo sapiens, THP-1, 48 h, read-out: EC50
From the text: To test the efficacy of anti-MSR1 antibody-LXR conjugates in vitro, a cell-based LXR responsive luciferase reporter assay was developed. To generate the assay cell line, a LXR regulated luciferase reporter gene [Cignal Lenti LXR Reporter (luc) kit (Qiagen, Cat # CLS-001L)] was transduced into THP1 cells, and cells were selected for two weeks in puromycin. The lentivirus expresses the firefly luciferase gene under the control of a minimal CMV promoter and tandem repeats of the LXR transcriptional response element. The resulting cell line is referred to as THP1/LXR-Luc cells.
THP1/LXR-Luc cells were seeded onto 96 well plates at 40,000 cells/well in media containing RPMI supplemented with 10% FBS and pencillin/streptomycin and subsequently differentiated with 200 nM Phorbol Myristate Acetate (PMA) for 3 days. After the 3-day differentiation period, three-fold serial dilutions of antibody drug conjugates, unconjugated antibodies, or free payloads in fresh media were added to the cells at final concentration ranging from 100 nM to 0.01 nM. Media alone served as a blank control. Forty-eight hours later, luciferase activity was determined after the addition of One-Glo™ reagent (Promega, Cat # E6130) to each well. Relative light units (RLUs) were measured on a Victor luminometer (PerkinElmer) and EC50 values were determined using a four-parameter logistic equation over a 10-point dose response curve (GraphPad Prism). The signal to noise (S/N) was determined by calculating the ratio of RLU of standard one over RLU of standard eight for each of the unconjugated anti-MSR1 antibodies or free payloads. “LP #” represents a linker-payload for which the corresponding structures are provided elsewhere herein, and “P #” represents a payload for which the corresponding structures are provided elsewhere herein.

## CNCC(=O)Nc1ccc2c(c1)[C@@]1(C)CCC[C@](C)(C(=O)NC(=O)[C@@]3(C)CCC[C@]4(C)c5cc(O)ccc5CC[C@@H]34)[C@@H]1CC2 [Compound 9k, (1S,4aS,10aR)—N-((1S,4aS,10aR)-1,4a-Dimethyl-6-(2-(methylamino)acetamido)-1,2,3,4,4a,9,10,10a-octahydrophenanthrene-1-carbonyl)-6-hydroxy-1,4a-dimethyl-1,2,3,4,4a,9,10,10a-octahydrophenanthrene-1-carboxamide; Trifluoroacetic Acid Salt]
[1]
  IC50: 10 to 100 nM
[2]
  EC50: 1 to 10 nM
  Emax: > 75%
[3]
  IC50: < 10 nM

## C[C@]1(C(=O)NC(=O)[C@@]2(C)CCC[C@]3(C)c4cc(NC(=O)[C@@H](N)CCCCN)ccc4CC[C@@H]23)CCC[C@]2(C)c3cc(O)ccc3CC[C@@H]12 [Compound 9l, (1S,4aS,10aR)—N-[(1S,4aS,10aR)-6-Hydroxy-1,4a-dimethyl-1,2,3,4,4a,9,10,10a-octahydrophenanthrene-1-carbonyl]-6-[(2S)-2,6-diaminohexanamido]-1,4a-dimethyl-1,2,3,4,4a,9,10,10a-octahydrophenanthrene-1-carboxamide; Trifluoroacetic Acid Salt]
[4]; 48-hour time point, stimulation of THP1/Luc cells
  EC50: 0.37 to 2.09 nM
[4]; PMA-differentiated THP1/LXR-Luc cells, 48 hours, luciferase activity (One-Glo), 10-point dose response 100 nM to 0.01 nM
  EC50: 2.09 nM
[4]; PMA-differentiated THP1/LXR-Luc cells, 48 hours, luciferase activity
  S/N (signal to noise, ratio of RLU of standard one over RLU of standard eight): 8.9
[1]
  IC50: 10 to 100 nM
[2]
  EC50: 1 to 10 nM
  Emax: > 75%
[3]
  IC50: 10 to 100 nM

## C[C@]1(C(=O)NC(=O)[C@@]2(C)CCC[C@]3(C)c4cc(NC(=O)[C@@H](N)Cc5c[nH]cn5)ccc4CC[C@@H]23)CCC[C@]2(C)c3cc(O)ccc3CC[C@@H]12 [Compound 9m, (1S,4aS,10aR)—N-[(1S,4aS,10aR)-6-Hydroxy-1,4a-dimethyl-1,2,3,4,4a,9,10,10a-octahydrophenanthrene-1-carbonyl]-6-[(2S)-2-amino-3-(1H-imidazol-4-yl)propanamido]-1,4a-dimethyl-1,2,3,4,4a,9,10,10a-octahydrophenanthrene-1-carboxamide; trifluoroacetic acid salt]
[1]
  IC50: 10 to 100 nM
[2]
  EC50: 1 to 10 nM
  Emax: > 75%
[3]
  IC50: < 10 nM

## C[C@]1(C(=O)NC(=O)[C@@]2(C)CCC[C@]3(C)c4cc(NC(=O)[C@@H](N)CC(=O)O)ccc4CC[C@@H]23)CCC[C@]2(C)c3cc(O)ccc3CC[C@@H]12 [Compound 9n, (3S)-3-Amino-3-{[(4bS,8S,8aR)-8-{[(1S,4aS,10aR)-6-hydroxy-1,4a-dimethyl-1,2,3,4,4a,9,10,10a-octahydrophenanthrene-1-carbonyl]carbamoyl}-4b,8-dimethyl-4b,5,6,7,8,8a,9,10-octahydrophenanthren-3-yl]carbamoyl}propanoic Acid]
[1]
  IC50: 10 to 100 nM
[2]
  EC50: ≤ 1 nM
  Emax: > 75%
[3]
  IC50: < 10 nM

## C[C@]1(C(=O)NC(=O)[C@@]2(C)CCC[C@]3(C)c4cc(CN)ccc4CC[C@@H]23)CCC[C@]2(C)c3cc(O)ccc3CC[C@@H]12 [Compound 9p, (1S,4aS,10aR)-6-(Aminomethyl)-N-((1S,4aS,10aR)-6-hydroxy-1,4a-dimethyl-1,2,3,4,4a,9,10,10a-octahydrophenanthrene-1-carbonyl)-1,4a-dimethyl-1,2,3,4,4a,9,10,10a-octahydrophenanthrene-1-carboxamide; Trifluoroacetic Acid Salt]
[1]
  IC50: 10 to 100 nM
[2]
  EC50: 1 to 10 nM
  Emax: > 75%
[3]
  IC50: < 10 nM

## C[C@]1(C(=O)NC(=O)[C@@]2(C)CCC[C@]3(C)c4cc(NC(=O)CCCC(=O)O)ccc4CC[C@@H]23)CCC[C@]2(C)c3cc(O)ccc3CC[C@@H]12 [Compound 9q, 4-{[(4bS,8S,8aR)-8-{[(1S,4aS,10aR)-6-Hydroxy-1,4a-dimethyl-1,2,3,4,4a,9,10,10a-octahydrophenanthrene-1-carbonyl]carbamoyl}-4b,8-dimethyl-4b,5,6,7,8,8a,9,10-octahydrophenanthren-3-yl]carbamoyl}butanoic Acid]
[1]
  IC50: < 10 nM
[2]
  EC50: 10 to 100 nM
  Emax: > 75%
[3]
  IC50: < 10 nM

## C[C@]1(C(=O)NC(=O)[C@@]2(C)CCC[C@]3(C)c4cc(NC(=O)CNCC(=O)O)ccc4CC[C@@H]23)CCC[C@]2(C)c3cc(O)ccc3CC[C@@H]12 [Compound 9r, 2-[({[(4bS,8S,8aR)-8-{[(1S,4aS,10aR)-6-Hydroxy-1,4a-dimethyl-1,2,3,4,4a,9,10,10a-octahydrophenanthrene-1-carbonyl]carbamoyl}-4b,8-dimethyl-4b,5,6,7,8,8a,9,10-octahydrophenanthren-3-yl]carbamoyl}methyl)amino]acetic Acid; Trifluoroacetic Acid Salt]
[1]
  IC50: < 10 nM
[2]
  EC50: 10 to 100 nM
  Emax: > 75%
[3]
  IC50: < 10 nM

## O=C(O)Cc1cccc(OCCCN(Cc2cccc(C(F)(F)F)c2Cl)CC(c2ccccc2)c2ccccc2)c1 [GW3965]
[1]
  IC50: < 10 nM
[2]
  EC50: > 100 nM
  Emax: > 75%
[3]
  IC50: < 10 nM
